Where a name gives a salt, the structure may show the parent alone.
Tests used:
[1] = test system: bacterial strains that express the class D cephalosporinase OXA-15; experiment: Synergy MIC / standard BLI potentiation MIC assay, strains expressing OXA-15;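 also: more active means a lower MIC or sMIC than Avibactam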; type: cell-based, E. coli; conditions: in the presence of a β-lactam; comparator Avibactam (CCC)
Summary of the method: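 CLSI broth microdilution in CAMHB, ~10^5 CFU/mL, 18–20 h at 37 °C with aeration; engineered E. coli kept on 25 μg/mL tetracycline. Potentiation: β-lactam 128–0.13 μg/mL with BLI fixed at 4 μg/mL; synergy MIC: BLI serially diluted with fixed β-lactam. MIC is the lowest concentration without visible turbidity.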

[2] = test system: bacterial strains that express KPC β-lactamases; experiment: Synergy MIC / standard BLI potentiation MIC assay, strains expressing KPC β-lactamases; type: cell-based; conditions: for at least one KPC strain and/or a better spectrum of activity against KPC strains than Avibactam; in the presence of a β-lactam
Description: Unless otherwise indicated, the activity of the BLI compounds can be described by the MIC value obtained from a Synergy MIC assay or a BLI potentiation assay (e.g as described herein), both of which are run in the presence of a β-lactam.
The experimental protocol was performed according to Clinical and Laboratory Standards Institute (CLSI) guidelines with modifications as described below (CLSI guidelines can be derived from the CLSI document M07-A9 published in January 2012: “Methods for Dilution Antimicrobial Susceptibility Tests for Bacteria That Grow Aerobically; Approved Standard-Ninth Edition”).
To prepare for MIC testing, frozen glycerol stocks of clinical isolates (Klebsiella pneumoniae, Eschericia coli, Enterobacter spp, Citrobacter spp, or Pseudomonas aeruginosa) were used to streak for isolated colonies on rich, non-selective, tryptic soy agar containing 5% sheep's blood (TSAB). Frozen glycerol stocks of laboratory engineered, isogenic E. coli strains, which contain cloned β-lactamase expressing plasmids were used to streak for isolated colonies on rich, selective LB agar supplemented with 25 μg/mL tetracycline to maintain the plasmid. All strains were incubated at 37° C. for 18-24 hrs.
On the day of testing, primary cultures were started by scraping off 5-10 colonies from the TSAB plates containing clinical strains or the tetracycline supplemented LB plates containing engineered strains. The clinical strain material was suspended in ˜5 mL of cation adjusted Mueller Hinton Broth (CAMHB) in 14 mL culture tubes. The engineered strain material was suspended in CAMHB (supplemented with 25 μg/mL tetracycline) in 14 mL culture tubes. All strains were incubated at 37° C. with aeration (200 rpm) for ˜2 hrs until the optical density at 600 nm (OD600) was ≧0.1.
The two compound components of the assay were each diluted in CAMHB and added to the 96-well broth microdilution assay plates. 50 μL of the β-lactam was added to each well of the assay plate in 2-fold dilutions with final concentrations ranging from 128 to 0.13 μg/mL. 25 μL of the BLI compound was added to all wells in the broth microdilution plates at a final concentration of 4 μg/mL. Inoculum cultures were prepared by standardizing the primary cultures to OD600=0.1 and then adding 20 μL of the adjusted primary culture per 1 mL CAMHB for clinical strains or CAMHB (supplemented with tetracycline at 100 μg/mL) for engineered strains, so that the final inoculum density was ˜10^5 colony forming units per milliliter. Diluted inoculum cultures were used to inoculate 25 μl, per well in 96-well broth microdilution assay plates. The final volume of each well was 100 μL and contained a β-lactam at different concentrations, a BLIcompound at 4 μg/mL concentration, the bacterial culture at an OD600 of approximately 0.001 and when necessary tetracycline at 25 μg/mL.
Plates were incubated for 18-20 hours at 37° C. with aeration (200 rpm). Following incubation, growth was confirmed visually placing plates over a viewing apparatus (stand with a mirror underneath) and then OD600 was measured using a SpectraMax 340PC384 plate reader (Molecular Devices, Sunnyvale, Calif.). Growth was defined as turbidity that could be detected with the naked eye or achieving minimum OD600 of 0.1. MIC values were defined as the lowest concentration producing no visible turbidity.
The synergy MIC (sMIC) assay determines the concentration of the BLI required to potentiate the activity of a fixed concentration of a β-lactam antibiotic against β-lactamase producing bacterial strains. The experimental protocol was performed according to Clinical and Laboratory Standards Institute (CLSI) guidelines with modifications as described below (CLSI guidelines can be derived from the CLSI document M07-A9 published in January 2012: “Methods for Dilution Antimicrobial Susceptibility Tests for Bacteria That Grow Aerobically; Approved Standard-Ninth Edition”). […]

Row | Compound | activity against bacterial strains that express OXA-15 β-lactamase compared with Avibactam [1] | activity against bacterial strains that express KPC β-lactamase compared with Avibactam [2]
1 | O=C1N2C[C@@H](CC[C@H]2c2nnc(CCNC3CNC3)o2)N1OS(=O)(=O)O [Compound 745, (2S,5R)-2-(5-(2-(azetidin-3-ylamino)ethyl)-1,3,4-oxadiazol-2-yl)-7-oxo-1,6-diazabicyclo[3.2.1]octan-6-yl hydrogen sulfate] | more active than Avibactam | more active than Avibactam
2 | N=C(N)N1CC(NCc2nnc([C@@H]3CC[C@@H]4CN3C(=O)N4OS(=O)(=O)O)o2)C1 [Compound 746, (2S,5R)-2-(5-(((1-carbamimidoylazetidin-3-yl)amino)methyl)-1,3,4-oxadiazol-2-yl)-7-oxo-1,6-diazabicyclo[3.2.1]octan-6-yl hydrogen sulfate] | more active than Avibactam | more active than Avibactam
3 | N=C(N)N[C@H]1C[C@@H](c2nnc([C@@H]3CC[C@@H]4CN3C(=O)N4OS(=O)(=O)O)o2)C1 [Compound 749, (2S,5R)-2-(5-((1s,3R)-3-guanidinocyclobutyl)-1,3,4-oxadiazol-2-yl)-7-oxo-1,6-diazabicyclo[3.2.1]octan-6-yl hydrogen sulfate] | more active than Avibactam | more active than Avibactam
4 | O=C1N2C[C@@H](CC[C@H]2c2nnc(C3CC4(CNC4)C3)o2)N1OS(=O)(=O)O [Compound 750, (2S,5R)-2-(5-(2-azaspiro[3.3]heptan-6-yl)-1,3,4-oxadiazol-2-yl)-7-oxo-1,6-diazabicyclo[3.2.1]octan-6-yl hydrogen sulfate] | more active than Avibactam | more active than Avibactam
5 | N[C@H]1C[C@H](Cc2nnc([C@@H]3CC[C@@H]4CN3C(=O)N4OS(=O)(=O)O)o2)C1 [Compound 751, (2S,5R)-2-(5-(((1r,3S)-3-aminocyclobutyl)methyl)-1,3,4-oxadiazol-2-yl)-7-oxo-1,6-diazabicyclo[3.2.1]octan-6-yl hydrogen sulfate] | more active than Avibactam | more active than Avibactam
6 | N=C(N)NC1CC(Cc2nnc([C@@H]3CC[C@@H]4CN3C(=O)N4OS(=O)(=O)O)o2)C1 (stereo partly drawn) [Compound 752, (2S,5R)-2-(5-((3-guanidinocyclobutyl)methyl)-1,3,4-oxadiazol-2-yl)-7-oxo-1,6-diazabicyclo[3.2.1]octan-6-yl hydrogen sulfate] | more active than Avibactam | more active than Avibactam
7 | N[C@H]1C[C@H](CCc2nnc([C@@H]3CC[C@@H]4CN3C(=O)N4OS(=O)(=O)O)o2)C1 [Compound 753, (2S,5R)-2-(5-(2-((1r,3R)-3-aminocyclobutyl)ethyl)-1,3,4-oxadiazol-2-yl)-7-oxo-1,6-diazabicyclo[3.2.1]octan-6-yl hydrogen sulfate] | more active than Avibactam | more active than Avibactam
8 | N[C@H]1C[C@@H](CCc2nnc([C@@H]3CC[C@@H]4CN3C(=O)N4OS(=O)(=O)O)o2)C1 [Compound 754, (2S,5R)-2-(5-(2-((1s,3S)-3-aminocyclobutyl)ethyl)-1,3,4-oxadiazol-2-yl)-7-oxo-1,6-diazabicyclo[3.2.1]octan-6-yl hydrogen sulfate] | more active than Avibactam | more active than Avibactam
9 | NC1CC(NCc2nnc([C@@H]3CC[C@@H]4CN3C(=O)N4OS(=O)(=O)O)o2)C1 (stereo partly drawn) [Compound 755, (2S,5R)-2-(5-(((3-aminocyclobutyl)amino)methyl)-1,3,4-oxadiazol-2-yl)-7-oxo-1,6-diazabicyclo[3.2.1]octan-6-yl hydrogen sulfate] | more active than Avibactam | more active than Avibactam
10 | N[C@H]1C[C@@H](NCc2nnc([C@@H]3CC[C@@H]4CN3C(=O)N4OS(=O)(=O)O)o2)C1 [Compound 756, (2S,5R)-2-(5-((((1s,3R)-3-aminocyclobutyl)amino)methyl)-1,3,4-oxadiazol-2-yl)-7-oxo-1,6-diazabicyclo[3.2.1]octan-6-yl hydrogen sulfate] | more active than Avibactam | more active than Avibactam
11 | O=C1N2C[C@@H](CC[C@H]2c2nnc([C@H]3CCNC3)o2)N1OS(=O)(=O)O [Compound 758, (2S,5R)-7-oxo-2-(5-((S)-pyrrolidin-3-yl)-1,3,4-oxadiazol-2-yl)-1,6-diazabicyclo[3.2.1]octan-6-yl hydrogen sulfate] | more active than Avibactam | more active than Avibactam
12 | O=C1N2C[C@@H](CC[C@H]2c2nnc([C@@H]3CCNC3)o2)N1OS(=O)(=O)O [Compound 759, (2S,5R)-7-oxo-2-(5-((R)-pyrrolidin-3-yl)-1,3,4-oxadiazol-2-yl)-1,6-diazabicyclo[3.2.1]octan-6-yl hydrogen sulfate] | more active than Avibactam | more active than Avibactam
13 | N[C@@H]1CN[C@H](c2nnc([C@@H]3CC[C@@H]4CN3C(=O)N4OS(=O)(=O)O)o2)C1 [Compound 760, (2S,5R)-2-(5-((2S,4S)-4-aminopyrrolidin-2-yl)-1,3,4-oxadiazol-2-yl)-7-oxo-1,6-diazabicyclo[3.2.1]octan-6-yl hydrogen sulfate] | more active than Avibactam | more active than Avibactam
14 | N[C@H]1CN[C@@H](c2nnc([C@@H]3CC[C@@H]4CN3C(=O)N4OS(=O)(=O)O)o2)C1 [Compound 761, (2S,5R)-2-(5-((2R,4R)-4-aminopyrrolidin-2-yl)-1,3,4-oxadiazol-2-yl)-7-oxo-1,6-diazabicyclo[3.2.1]octan-6-yl hydrogen sulfate] | more active than Avibactam | more active than Avibactam
15 | N[C@H]1CN[C@H](c2nnc([C@@H]3CC[C@@H]4CN3C(=O)N4OS(=O)(=O)O)o2)C1 [Compound 762, (2S,5R)-2-(5-((2S,4R)-4-aminopyrrolidin-2-yl)-1,3,4-oxadiazol-2-yl)-7-oxo-1,6-diazabicyclo[3.2.1]octan-6-yl hydrogen sulfate] | more active than Avibactam | more active than Avibactam
